From patent publication US20230203081A1, “LINCOSAMIDE ANTIBIOTICS AND USES THEREOF” (President and Fellows of Harvard College, priority 2020, published 2023)
In brackets after ≈: the same amount, converted by molar mass. Entries after “also recorded” stand apart in the source; their conditions may differ. Read-outs that look alike come from different tables or passages of the source.

How the values were obtained:
E. coli strain SQ110DTC = test: MIC in LB medium against E. coli SQ110DTC and its FSA-513018b-resistant mutants (Table 14); assay type: cell-based; conditions: Escherichia coli
E. faecalis VRE = test: MIC (CLSI), third E. faecalis VRE line of Table 4; assay type: cell-based; conditions: Enterococcus faecalis
Experimental: (§1) Minimum inhibitory concentrations (MICs) were determined by broth microdilution method or agar dilution method following the Clinical and Laboratory Standards Institute guidelines. Standard bacterial strains were obtained from American Type Culture Collection (ATCC). Other bacterial strains were obtained from hospitals and commercial sources, so noted in Table 11. Before the start of the MIC experiment, standard and test compound stock solutions were prepared in dimethyl sulfoxide (DMSO, Aldrich D2650) at a stock concentration of 5,120 μg/mL. The compound concentration range typically employed for each experiment was 128-0.06 μg/mL (2.5% final DMSO concentration). Clindamycin was used as a comparator in all experiments and each experiment was performed in triplicate. Specialized procedures were employed for streptococcal and anaerobic strains. All other bacterial strains were sub-cultured on blood agar plates (tryptic soy agar with 5% sheep blood, Hardy Diagnostics) and incubated overnight at 35° C. Organisms were suspended in cation-adjusted Mueller-Hinton broth (CaMHB, BD 212322) and optical density was adjusted to 0.5 McFarland standard. Suspensions were further diluted to obtain a final inoculum of 5×10^5 CFU/mL for broth microdilution experiments.

[1] = system: S. aureus MMX USA 300; MRSA; test: MIC (broth microdilution or agar dilution, CLSI); assay type: cell-based; conditions: Staphylococcus aureus
Method in brief: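 MICs follow CLSI broth microdilution or agar dilution, testing typically 128-0.06 μg/mL compound at 2.5% final DMSO, in triplicate with clindamycin comparator. Non-anaerobic strains use CaMHB at a final inoculum of 5×10^5 CFU/mL; anaerobes like C. difficile and C. scindens use specialized procedures.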

Escherichia coli c-ermB = test: MIC, clinically derived E. coli with acquired resistance; assay type: cell-based
Experimental: as §1

[2] = system: mammalian cells (A549, K562, HCT116, HepG2); test: Mammalian cell growth inhibition (CellTiter-Blue cell viability assay); assay type: cell-based, human; conditions: cell-culture safety profiling; result in words
Experimental: (§2) Mammalian cell experiments: All compounds were dissolved in sterile DMSO to a stock concentration of 20 μM and aliquoted prior to freezing at −20° C. Aliquots were limited to a maximum of 3 freeze-thaw cycles. A549 (human pulmonary carcinoma; […]) cells were cultured in Dulbecco's Modified Eagle Medium (DMEM) supplemented with 10% fetal bovine serum. K562 (human chronic myelogenous leukemia; […]) cells were cultured in Iscove's Modification of DMEM (IMDM) media supplemented with 10% fetal bovine serum. HCT116 (human colorectal carcinoma; […]) cells were cultured in McCoy's 5a (Iwakata & Grace Modification) media supplemented with 10% fetal bovine serum. HepG2 (human hepatocellular carcinoma; […]) cells were cultured in Eagle's Minimum Essential Medium (EMEM) supplemented with 10% fetal bovine serum. All cell cultures were maintained in a 5% CO2 incubator at 37° C.
(§3) Growth inhibition was studied using the Promega CellTiter-Blue cell viability assay pursuant to the manufacturer's protocol. Briefly, cells were harvested, diluted, and mixed with the desired concentration of test compound. […] Plates were read on a SpectraMax i3 plate reader. GI50 values were determined by nonlinear regression using GraphPad Prism and represent the mean of at least three independent experiments.

[3] = as above; assay type: cell-based, human; conditions: human, A549, K562, HCT116 and HepG2 cells; mammalian cells, 72 h
Experimental: as §2, §3

human erythrocytes = test: Hemolysis of human erythrocytes relative to Triton X-100; assay type: cell-based; conditions: result in words
E. coli HAV504 = test: Murine neutropenic thigh infection model; assay type: in vivo, mice; conditions: neutropenic mouse thigh, E. coli HAV504 (FIG. 4C)
H. influenzae ATCC 49247 = test: MIC (broth microdilution or agar dilution, CLSI); assay type: cell-based
Method in brief: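 Isolates other than streptococci and anaerobes, which had their own procedures, were grown overnight at 35° C on tryptic soy agar with 5% sheep blood. Suspensions were then diluted to a final inoculum of 5×10^5 CFU/mL in broth microdilution wells.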

E. faecalis ATCC 29212 = test: Spontaneous resistance in standard bacterial strains; assay type: cell-based; conditions: agar with 4×, 8×, 16× MIC, 3 days
Experimental: (§4) […]. Bacterial strains (S. aureus ATCC 29213, S. aureus MRSA, and E. faecalis ATCC 29212) were suspended in normal saline and optical density was adjusted to 1.50 at 600 nm. Bacterial counts were measured by serial dilution and plating. Bacterial inoculum (250 μL) was transferred to the media plate and was spread evenly. Plates were incubated at 37° C. for 3 days, and were observed daily for resistant colonies to emerge.

[4] = system: S. aureus ATCC 29213, S. aureus MRSA; test: as above; assay type: cell-based; conditions: agar with 4×, 8×, 16× MIC, 3 days
Experimental: as §4

[5] = system: susceptible S. aureus and E. faecium strains; test: Time-kill studies; assay type: cell-based
Experimental: . Experiments were performed in duplicate following CLSI guidelines. An inoculum was prepared in Mueller-Hinton broth (MHB) containing 0.5-5×10^6 CFU/mL of test organism. Cultures were incubated at 37° C. in a shaker incubator at 110 rpm; a flask containing bacteria left unexposed to antibiotic was used as untreated control. At time points 0, 1, 3, 6, and 24 h following administration of antibiotic, bacterial counts were determined from each flask by serial dilution and plating on brain heart infusion agar (BD, Sparks, M D). Plates were incubated at 37° C. in incubators for 18-24 hours to determine bacterial counts. For streptococcal strains, blood agar plates (Tryptic Soy Agar with 5% Sheep Blood) were used for culturing the organisms (plates were incubated in the presence of 5% CO2), and time-kill studies were performed in media supplemented with 5% laked horse blood.

[6] = Microsomal intrinsic clearance (Clint,mic), species h; assay type: in vitro ADME, human; parameters: unit not given here
[7] = clone SA-3R1, mutation 2058G, selection plate 1 μg/mL FSA-513018b
[8] = clone SA-3R2, mutation 2059G, selection plate […] FSA-513018b
[9] = clone SA-3R9, mutation 2058G, selection plate […] FSA-513018b
[10] = clone SA-3R13, mutation 2059G, selection plate 1 μg/mL FSA-513018b

Compound CCC[C@@H]1C[C@@H](C(=O)N[C@@H]([C@H]2O[C@H](SC)[C@H](O)[C@@H](O)[C@H]2O)[C@H](C)Cl)N(C)C1 [Clindamycin, clindamycin, reference compound] has an MIC (E. coli strain SQ110DTC; E. coli SQ110DTC, WT) of 16 µg/mL (≈ 37.6 µM), an MIC (E. coli strain SQ110DTC; [7]) of over 128 µg/mL and an MIC (E. coli strain SQ110DTC; [8]) of over 128 µg/mL. For the same compound, the MIC (E. coli strain SQ110DTC; [9]) was over 128 µg/mL, the MIC (E. coli strain SQ110DTC; [10]) was over 128 µg/mL and the MIC (E. faecalis VRE; VRE) was over 128 µg/mL. The MIC [1] was 0.25 µg/mL (≈ 0.588 µM) and the MIC (Escherichia coli c-ermB; Escherichia coli) was over 128 µg/mL.

In the case of CSC1O[C@H]([C@H](NC(=O)[C@H]2NC[C@@H]3C[C@H](CC(C)C)CCO[C@H]32)[C@H](C)Cl)C(O)[C@@H](O)[C@H]1O (some centres unmarked) [FSA-513018b], the MIC (E. coli strain SQ110DTC; E. coli SQ110DTC, WT) is reported as 0.03 µg/mL (≈ 0.0606 µM), the MIC (E. coli strain SQ110DTC; [7]) is reported as 4 µg/mL (≈ 8.08 µM) and the MIC (E. coli strain SQ110DTC; [8]) is reported as 2 µg/mL (≈ 4.04 µM). The MIC (E. coli strain SQ110DTC; [9]) was 4 µg/mL (≈ 8.08 µM), the MIC (E. coli strain SQ110DTC; [10]) was 2 µg/mL (≈ 4.04 µM) and the MIC (E. coli strain SQ110DTC; read-out: MICs of resistant clones, SQ110DTC clones selected on agar containing FSA-513018b (A2058G or A2059G in 23S rRNA)) was 2 to 4 µg/mL (≈ 4.04 to 8.08 µM). For the same compound, the MIC (E. faecalis VRE; E. faecalis VRE (Table 4, third VRE line), read-out: MIC) was 1 µg/mL (≈ 2.02 µM), the “toxicity toward mammalian cells” value [2] was “non-toxic” and the GI50 at 72 h [3] was over 50 µM. For the same compound, the hemolysis (human erythrocytes) was “non-hemolytic”, the “efficacy in thigh infection model” value (E. coli HAV504) was “effective” and the MIC (H. influenzae ATCC 49247; H. influenzae HAV#007, ATCC 49247) was 1 µg/mL (≈ 2.02 µM). The MIC (H. influenzae ATCC 49247; Haemophilus influenzae, ATCC49247, H. influenzae ATCC 49247, read-out: MIC) was 1 µg/mL (≈ 2.02 µM), the spontaneous resistance (E. faecalis ATCC 29212) was “not observed; also recorded: No colonies were noted on any plate” and the spontaneous resistance [4] was “not observed; also recorded: No colonies were noted on any plate”. The cidality in time-kill ([5]; certain highly susceptible strains) was “concentration-dependent cidality”, the “mode of action in broth culture profiling (time-kill)” value ([5]; result in words) was “bacteriostatic” and the MIC (Escherichia coli c-ermB; E. coli HAV#504, Clinical, cErmB) was 8 µg/mL (≈ 16.2 µM). The MIC (Escherichia coli c-ermB; Escherichia coli) was 8 µg/mL (≈ 16.2 µM) and the “Clint,mic” value [6] was 34.

In the case of CN[C@H](CC(C)C)C(=O)N[C@H]1C(=O)N[C@@H](CC(N)=O)C(=O)N[C@H]2C(=O)N[C@H]3C(=O)N[C@H](C(=O)N[C@H](C(=O)O)c4cc(O)cc(O)c4-c4cc3ccc4O)[C@H](O)c3ccc(c(Cl)c3)Oc3cc2cc(c3O[C@@H]2O[C@H](CO)[C@@H](O)[C@H](O)[C@H]2O[C@H]2C[C@](C)(N)[C@H](O)[C@H](C)O2)Oc2ccc(cc2Cl)[C@H]1O [Vancomycin], the MIC (H. influenzae ATCC 49247; Haemophilus influenzae, ATCC49247) is reported as over 64 µg/mL.
